Measured values from ChEMBL document CHEMBL1159075, “The chemical synthesis and antibiotic activity of a diverse library of 2-aminobenzimidazole small molecules against MRSA and multidrug-resistant A. baumannii” (Bioorg Med Chem, 2010).
In brackets after ≈: the same amount, converted by molar mass.

Columns and labels:
[1] = tested on: Staphylococcus aureus; experiment: Antibacterial activity against methicillin-resistant Staphylococcus aureus BAA-44 after 16 to 20 hrs by microdilution susceptibility test; assay type: functional
[2] = tested on: Staphylococcus aureus; experiment: Antibacterial activity against Staphylococcus aureus ATCC 29213 after 16 to 20 hrs by microdilution susceptibility test; assay type: functional
[3] = tested on: Staphylococcus aureus; experiment: Antibacterial activity against Staphylococcus aureus ATCC 29740 after 16 to 20 hrs by microdilution susceptibility test; assay type: functional
[4] = tested on: Staphylococcus aureus; experiment: Antibacterial activity against Staphylococcus aureus ATCC 25923 after 16 to 20 hrs by microdilution susceptibility test; assay type: functional
[5] = tested on: Acinetobacter baumannii; experiment: Antibacterial activity against Acinetobacter baumannii ATCC 19606 after 16 to 20 hrs by microdilution susceptibility test; assay type: functional; conditions: ATCC 19606 = CIP 70.34 = JCM 6841
[6] = tested on: Acinetobacter baumannii; experiment: Antibacterial activity against Acinetobacter baumannii 3304 after 16 to 20 hrs by microdilution susceptibility test; assay type: functional
[7] = tested on: Acinetobacter baumannii; experiment: Antibacterial activity against Acinetobacter baumannii AB0043 after 16 to 20 hrs by microdilution susceptibility test; assay type: functional
[8] = Toxicity in defibrinated sheep RBC assessed as hemolysis at 25 uM by UV spectrometry; assay type: cell-based, Ovis aries, Erythrocyte; conditions: defibrinated sheep red blood cells, read-out: Activity
[9] = tested on: Acinetobacter baumannii; experiment: Antibacterial activity against Acinetobacter baumannii UH8407 after 16 to 20 hrs by microdilution susceptibility test; assay type: functional
[10] = tested on: Acinetobacter baumannii; experiment: Antibacterial activity against multidrug-resistant Acinetobacter baumannii BAA-1605 after 16 to 20 hrs by microdilution susceptibility test; assay type: functional
[11] = tested on: Staphylococcus aureus; experiment: Antibacterial activity against methicillin-resistant Staphylococcus aureus BAA-44 at […] uM after 16 to 20 hrs by microdilution susceptibility test; assay type: functional
[12] = Induction of pore-formation in synthetic 1-palmitoyl-2-oleoyl-sn-glycero-3-phosphocholine vesicles assessed as dye leakage at 25 uM; assay type: physicochemical
[13] = Induction of pore-formation in synthetic 1-palmitoyl-2-oleoyl-sn-glycero-3-phosphoglycerol vesicles assessed as dye leakage at 25 uM; assay type: physicochemical
[14] = Induction of pore-formation in synthetic 1-palmitoyl-2-oleoyl-sn-glycero-3-phosphoglycerol vesicles assessed as dye leakage at >500 uM; assay type: physicochemical
[15] = tested on: Staphylococcus aureus; experiment: Ratio of MBC to MIC for Staphylococcus aureus BAA-44 after 16 to 20 hrs by microdilution susceptibility test

Compound	MIC ([1]; Staphylococcus aureus, BAA-44) [µM]	MIC [2] [µM]	MIC [3] [µM]	MIC [4] [µM]	MIC [5] [µM]	MIC [6] [µM]	MIC [7] [µM]	MIC [9] [µM]	MIC [10] [µM]	other results
CCCCCCCc1ccc(C(=O)Nc2ccc3[nH]c(N)nc3c2)cc1	25 (≈ 8.76 µg/mL)	25 (≈ 8.76 µg/mL)	12.5 (≈ 4.38 µg/mL)	50 (≈ 17.5 µg/mL)	50 (≈ 17.5 µg/mL)	50 (≈ 17.5 µg/mL)	12.5 (≈ 4.38 µg/mL)			
CCCCCc1ccc(-c2c[nH]c(N)n2)cc1	12.5 (≈ 2.87 µg/mL)									
COc1cccc(OC)c1C(=O)N[C@@H]1C(=O)N2[C@@H]1SC(C)(C)[C@@H]2C(=O)O [METHICILLIN]	> 400	3.13 (≈ 1.19 µg/mL)								
Nc1nc2cc(NC(=O)c3ccccc3)ccc2[nH]1										hemolysis at 25 µM [8]: < 1%
[N-]=[N+]=NCCc1ccsc1					> 400		> 400	> 400	> 400	
CN[C@@H]1[C@H](O[C@H]2[C@H](O[C@H]3[C@H](O)[C@@H](O)[C@H](N=C(N)N)[C@@H](O)[C@@H]3N=C(N)N)O[C@@H](C)[C@]2(O)C=O)O[C@@H](CO)[C@H](O)[C@H]1O [STREPTOMYCIN]	> 200	1.56 (≈ 0.907 µg/mL)	0.391 (≈ 0.227 µg/mL)							
CCCCCCCCCCc1cn(-c2ccc(C(=O)Nc3ccc4[nH]c(N)nc4c3)cc2)nn1	> 400									
CCCCCCS(=O)(=O)Nc1ccc2[nH]c(N)nc2c1	100 (≈ 29.6 µg/mL)	100 (≈ 29.6 µg/mL)	100 (≈ 29.6 µg/mL)							
CC(C)(C)c1ccc(C(=O)Nc2ccc3[nH]c(N)nc3c2)cc1	50 (≈ 15.4 µg/mL)	50 (≈ 15.4 µg/mL)	50 (≈ 15.4 µg/mL)	100 (≈ 30.8 µg/mL)	100 (≈ 30.8 µg/mL)	100 (≈ 30.8 µg/mL)	50 (≈ 15.4 µg/mL)	100 (≈ 30.8 µg/mL)	100 (≈ 30.8 µg/mL)	
[N-]=[N+]=Nc1ccc(C(=O)Nc2ccc3[nH]c(N)nc3c2)cc1	400 (≈ 117 µg/mL)									
GENTAMICIN		0.391	6.2		100	> 400	200	> 400	> 400	MIC [1]: 200 µM
CCCCCCC(=O)Nc1ccc2[nH]c(N)nc2c1					> 400	> 400	400 (≈ 104 µg/mL)	> 400	> 400	
NC[C@H]1O[C@H](O[C@H]2[C@H](O)[C@@H](O[C@H]3O[C@H](CO)[C@@H](O)[C@H](N)[C@H]3O)[C@H](N)C[C@@H]2N)[C@H](N)C[C@@H]1O [TOBRAMYCIN]					25 (≈ 11.7 µg/mL)	> 400	200 (≈ 93.5 µg/mL)	200 (≈ 93.5 µg/mL)	6.25 (≈ 2.92 µg/mL)	
CN(C)[C@@H]1C(O)=C(C(N)=O)C(=O)[C@@]2(O)C(O)=C3C(=O)c4c(O)cccc4[C@@](C)(O)[C@H]3C[C@@H]12 [TETRACYCLINE]					3.13 (≈ 1.39 µg/mL)	25 (≈ 11.1 µg/mL)	6.25 (≈ 2.78 µg/mL)	> 400	> 400	
CN[C@H](CC(C)C)C(=O)N[C@H]1C(=O)N[C@@H](CC(N)=O)C(=O)N[C@H]2C(=O)N[C@H]3C(=O)N[C@H](C(=O)N[C@H](C(=O)O)c4cc(O)cc(O)c4-c4cc3ccc4O)[C@H](O)c3ccc(c(Cl)c3)Oc3cc2cc(c3O[C@@H]2O[C@H](CO)[C@@H](O)[C@H](O)[C@H]2O[C@H]2C[C@](C)(N)[C@H](O)[C@H](C)O2)Oc2ccc(cc2Cl)[C@H]1O [VANCOMYCIN]	0.391 (≈ 0.567 µg/mL)	0.391 (≈ 0.567 µg/mL)	0.195 (≈ 0.283 µg/mL)	0.391 (≈ 0.567 µg/mL)						
Nc1nc2cc(NS(=O)(=O)c3ccc4ccccc4c3)ccc2[nH]1	100 (≈ 33.8 µg/mL)	100 (≈ 33.8 µg/mL)								
CCCCc1cn(-c2ccc(C(=O)Nc3ccc4[nH]c(N)nc4c3)cc2)nn1	> 400									
CC1(C)S[C@@H]2[C@H](NC(=O)[C@H](N)c3ccccc3)C(=O)N2[C@H]1C(=O)O [AMPICILLIN]					> 400	> 400	> 400	> 400	> 400	
CCCCc1ccc(C(=O)Nc2ccc3[nH]c(N)nc3c2)cc1	25 (≈ 7.71 µg/mL)	25 (≈ 7.71 µg/mL)	12.5 (≈ 3.85 µg/mL)	25 (≈ 7.71 µg/mL)	50 (≈ 15.4 µg/mL)	100 (≈ 30.8 µg/mL)	25 (≈ 7.71 µg/mL)	50 (≈ 15.4 µg/mL)	25 (≈ 7.71 µg/mL)	
O=C(O)c1cn(C2CC2)c2cc(N3CCNCC3)c(F)cc2c1=O [CIPROFLOXACIN]	12.5 (≈ 4.14 µg/mL)	0.391 (≈ 0.13 µg/mL)	0.391 (≈ 0.13 µg/mL)							
CCCCCCCCCCCC(=O)Nc1ccc2[nH]c(N)nc2c1	12.5 (≈ 4.13 µg/mL)	25 (≈ 8.26 µg/mL)	12.5 (≈ 4.13 µg/mL)	50 (≈ 16.5 µg/mL)	25 (≈ 8.26 µg/mL)	12.5 (≈ 4.13 µg/mL)	12.5 (≈ 4.13 µg/mL)	25 (≈ 8.26 µg/mL)	12.5 (≈ 4.13 µg/mL)	
CCCCCc1ccc(C(=O)Nc2ccc3[nH]c(N)nc3c2)cc1.Cl	12.5	12.5	6.25	12.5	25	25	12.5	25	12.5	MBC50 [1]: 5.88 µM; MBC90 [1]: 11.15 µM; MBC ([1]; Staphylococcus aureus, BAA-44): 25 µM; Activity [11]: 99.15%; hemolysis at 25 µM [8]: < 1%; Activity [12]: 9%; Activity [13]: 16%; Activity [14]: > 50%; Ratio [15]: 2
CCCCCCc1ccc(C(=O)Nc2ccc3[nH]c(N)nc3c2)cc1	12.5 (≈ 4.21 µg/mL)	12.5 (≈ 4.21 µg/mL)	6.25 (≈ 2.1 µg/mL)	12.5 (≈ 4.21 µg/mL)	50 (≈ 16.8 µg/mL)	50 (≈ 16.8 µg/mL)	12.5 (≈ 4.21 µg/mL)	25 (≈ 8.41 µg/mL)	12.5 (≈ 4.21 µg/mL)	
CCCCCCCCCC(=O)Nc1ccc2[nH]c(N)nc2c1	25 (≈ 7.56 µg/mL)	12.5 (≈ 3.78 µg/mL)	12.5 (≈ 3.78 µg/mL)	25 (≈ 7.56 µg/mL)	25 (≈ 7.56 µg/mL)	25 (≈ 7.56 µg/mL)	25 (≈ 7.56 µg/mL)	25 (≈ 7.56 µg/mL)	25 (≈ 7.56 µg/mL)	
CCCCCc1ccc(C(=O)Nc2ccccc2)cc1	> 400				> 400					
Nc1nc2cc(NC(=O)c3ccc(-c4ccccc4)cc3)ccc2[nH]1	> 400	> 400	> 400	> 400	> 400	> 400	> 400			
CCCCCCCCCCCCCCCCCC(=O)Nc1ccc2[nH]c(N)nc2c1					> 400	> 400	> 400	> 400	> 400	
C[C@@H](O)[C@H]1C(=O)N2C(C(=O)O)=C(SCCNC=N)C[C@H]12 [IMIPENEM ANHYDROUS]					0.391 (≈ 0.117 µg/mL)	200 (≈ 59.9 µg/mL)	50 (≈ 15 µg/mL)	3.12 (≈ 0.935 µg/mL)	50 (≈ 15 µg/mL)	
